Laboratory results as given in patent US20240417408A1, “SMALL MOLECULE INHIBITORS OF KRAS G12C MUTANT” (MERCK SHARP & DOHME CORP., priority 2021, published 2024).

What was measured:
[1] = target: T1, Recombinant KRAS G12C mutant protein (amino acids 1-169, SEQ ID NO: 1) (Homo sapiens, UniProt P01116, G12C); assay: Test Example 1: inhibitory activity on KRAS G12C nucleotide (GDP-GTP) exchange reaction in vitro; format: biochemical; conditions: BODIPY FL GDP-bound KRAS G12C incubated with compound at 25° C. for 1 hour, then SOS1 and GMPPNP, read-out: GNE IC50
T1 construct: His6 (N); TEV protease site (ENLYFQG; named from own knowledge) (N); made in house; host or cells: E. coli
T1 sequence (P01116 with tags, fused parts or gaps isoform P01116-2 G12C): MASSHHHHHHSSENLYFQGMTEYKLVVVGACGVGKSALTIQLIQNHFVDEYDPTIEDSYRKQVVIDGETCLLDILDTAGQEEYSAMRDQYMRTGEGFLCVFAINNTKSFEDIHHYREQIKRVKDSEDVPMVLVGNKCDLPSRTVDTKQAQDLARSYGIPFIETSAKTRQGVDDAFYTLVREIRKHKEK
Method: Test Example 1: Evaluation of inhibitory activity of compounds on KRAS G12C nucleotide (GDP-GTP) exchange reaction in vitro
Recombinant KRAS G12C mutant protein (amino acids 1-169, SEQ ID NO: 1) and cleaved recombinant SOS1 (amino acids 564-1049, SEQ ID NO:2) proteins were expressed in E. coli and purified by affinity chromatography.
To prepare BODIPY FL GDP-bound KRAS G12C protein, 50 μM KRAS G12C protein was incubated with 0.5 mM BODIPY FL GDP in a loading buffer (20 mM Tris-HCl (pH 7.5), 50 mM NaCl, 1 mM DTT and 2.5 mM EDTA) for 1 hour on ice. After the incubation, MgCl2 was added to a final concentration of 10 mM, followed by incubation at room temperature for 30 minutes. The mixture was allowed to pass through a NAP-5 column to remove free nucleotides and purified BODIPY FL GDP-bound KRAS G12C protein was used for compound evaluation.
For the measurement of the inhibitory activity of compounds on GDP-GTP exchange rate of recombinant KRAS G12C, BODIPY FL GDP-bound KRAS G12C protein was incubated with various concentrations of compound in a reaction buffer (20 mM Tris-HCl (pH 7.5), 100 mM NaCl, 1 mM MgCl2, 2 mM DTT, 0.1% Tween 20) at 25° C. for 1 hour. After the incubation, recombinant SOS1 and Guanosine-5′-[(β,γ)-imido]triphosphate, Tetralithium salt (GMPPNP) (Jena Bioscience GmbH) were added and incubated at room temperature for 30 minutes to proceed SOS1-dependent GDP-GTP exchange reaction on KRAS G12C. Replacement of BODIPY FL GDP by GMPPNP was measured by calculating the ratio of fluorescence intensities of BODIPY FL before and after the exchange reaction. Inhibition % was calculated by setting the fluorescence ratio from the reaction without test compound (DMSO control) and the fluorescence ratio from the reaction without SOS1 and GMPPNP as 0% and 100% inhibition, respectively. IC50 values were calculated from dose titration curve using curve fitting by XLfit software (IDBS).

[2] = target: T2, interaction between KRAS G12C and cRAF-RBD (Homo sapiens, UniProt P01116, G12C); assay: Test Example 2: inhibitory activity on interaction between KRAS G12C and cRAF (Alpha technology); format: binding; conditions: GMPPNP-bound KRAS G12C incubated with compound at 25° C. for 1 hour, then cRAF-RBD
T2 construct: TEV protease site (ENLYFQG); made in house; host or cells: E. coli
T2 sequence (P01116 with tags, fused parts or gaps isoform P01116-2 G12C): as above
Method: Test Example 2: Evaluation of Inhibitory Activity of Compounds on Interaction Between KRAS G12C and cRAF (In Vitro)
Interaction between recombinant KRAS G12C mutant protein (SEQ ID NO: 1) and cRAF RAS-binding domain (cRAF-RBD, amino acids 50-132, Jena Biosciences GmbH) was measured using Alpha technology (PerkinElmer Inc.).
Recombinant KRAS G12C protein with an N-terminal His-tag was expressed in E. coli and purified by affinity chromatography. To prepare GTP-bound form and GDP-bound form of KRAS G12C protein, 50 μM KRAS G12C protein was incubated with 1 mM GMPPNP (Jena Bioscience GmbH) and 1 mM GDP, respectively, in a loading buffer (20 mM Tris-HCl (pH 7.5), 50 mM NaCl, 1 mM DTT and 2.5 mM EDTA) for 1 hour on ice. After the incubation, MgCl2 was added to a final concentration of 10 mM, followed by incubation at room temperature for 30 minutes. The mixture was allowed to pass through a NAP-5 column to remove free nucleotides and purified, and the resultant nucleotide-bound KRAS G12C protein was used for compound evaluation.
For the measurement of the inhibitory activity of compounds on interaction between KRAS G12C and cRAF-RBD, GMPPNP-bound KRAS G12C protein was incubated with various concentrations of compound in a reaction buffer (20 mM Tris-HCl (pH 7.5), 100 mM NaCl, 1 mM MgCl2, 1 mM TCEP, 0.1% Tween 20) at 25° C. for 1 hour. After the incubation, recombinant cRAF-RBD and Alpha detection reagents were added and incubated at room temperature for 1.5 hours for binding. Interaction of KRAS G12C and cRAF-RBD was monitored by measuring Alpha signal. Inhibition % was calculated using the signal from the reaction without test compound (DMSO control) as 0% inhibition and the signal from the reaction using GDP-bound KRAS G12C in place of GMPPNP-bound KRAS G12C as 100% inhibition. IC50 values were calculated from dose titration curve using curve fitting by XLfit software (IDBS).

MIA PaCa-2 cells = assay: Test Example 3: growth inhibition activity on KRAS-G12C mutant cell line (MIA PaCa-2); format: cell-based; conditions: Homo sapiens, 72 h, MIA PaCa-2, 3-day culture, CellTiter-Glo 3D, read-out: CTX MiaPaCa IC50
Method: Test Example 3: Assay of Growth Inhibition Activity on KRAS-G12C Mutant Cell Line (MIA PaCa-2) (In Vitro)
MIA PaCa-2 cells (provided by Sumitomo Dainippon Pharma Co., Ltd.), which are a KRAS-G12C mutant human pancreas cancer cell line, were suspended in a 10% fetal bovine serum-containing RPMI1640 medium (manufactured by Fujifilm Wako Pure Chemical Corporation.). The cell suspension was seeded into each well of a 384-well U bottom microplate and cultured in an incubator containing 5% CO2 gas at 37° C. for 1 day. The compounds obtained in the Examples section were used as test compounds and were dissolved in DMSO, respectively, and each test compound was diluted with DMSO to give a concentration 500 times the final concentration. The resultant solution of the test compound in DMSO was diluted with the medium used for suspending cells and added to each well of the cell-culture plate to give a DMSO final concentration of 0.2%, followed by culture in an incubator containing 5% CO2 gas at 37° C. for another 3 days. The cell count after 3-day culture in the presence of the test compound was measured using CellTiter-Glo 3D Reagent (manufactured by Promega Corporation). To all cells were added with CellTiter-Glo 3D Reagent and mixed for 10 minutes. 30 minutes after mixing, luminescence was measured by a plate reader. The growth inhibition rate was calculated from the following equation, and the concentration of the test compound at which 50% inhibition was achieved (IC50 (nM)) was determined.
[formula] • T: the emission intensity in a well into which a test compound was added. • C: the emission intensity in a well into which a test compound was not added.

Structure (SMILES) | IC50 [1] | IC50 [2] | IC50 (MIA PaCa-2 cells)
C#Cc1cccc2cc(O)cc([C@@H]3Cc4nc(OCC5(C(=O)N(C)C)CC5)nc(N5CCN(C(=O)/C=C/CN6CCC(OC)CC6)[C@@H](CC#N)C5)c4CO3)c12 [Example 18, 1-((((S)-4-((S)-3-(cyano-methyl)-4-((E)-4-(4-meth-oxypiperidin-1-yl)but-2-enoyl)piperazin-1-yl)-7-(8-ethynyl-3-hydroxynaph-thalen-1-yl)-7,8-dihydro-5H-pyrano[4,3-d]pyrimidin-2-yl)oxy)methyl)-N,N-dimethylcyclopropane-1-carboxamide] | 58.7 nM | > 6670 nM | 4460 nM
COC1CCN(C/C=C/C(=O)N2CCN(c3nc(OCC4(CN5CCOCC5)CC4)nc4c3COC3(Cc5ccccc5C3)C4)C[C@@H]2CC#N)CC1 [Example 20, (S,E)-2-(1-(4-(4-methoxypiperidin-1-yl)but-2-enoyl)-4-(2′-((1-(morpholinomethyl)cyclopropyl)methoxy)-1,3,5′,8′-tetrahydrospiro[indene-2,7′-pyrano[4,3-d]pyrimidin]-4′-yl)piperazin-2-yl)acetonitrile] | 174 nM | > 6670 nM | 3350 nM
C#Cc1cccc2cc(O)cc(C3Cc4nc(OC[C@@H]5CCCN5C)nc(N5CCN(C(=O)/C=C/CN[C@H]6CC[C@H](OC)CC6)[C@@H](CC#N)C5)c4CO3)c12 (stereo partly drawn) [Example 9, 2-((2S)-4-(7-(8-ethynyl-3-hydroxynaphthalen-1-yl)-2-(((S)-1-methylpyrrolidin-2-yl)methoxy)-7,8-dihydro-5H-pyrano[4,3-d]pyrimidin-4-yl)-1-((E)-4-(((1r,4S)-4-methoxycyclohexyl)amino)-but-2-enoyl)piperazin-2-yl)-acetonitrile] | 1.27 nM | 133 nM | 40.4 nM
COC1CCN(C/C=C/C(=O)N2CCN(c3nc(OC[C@@H]4CCCN4C)nc4c3COC(c3cccc5ccccc35)C4)C[C@@H]2CC#N)CC1 (stereo partly drawn) [Example 4, 2-((2S)-1-((E)-4-(4-methoxy-piperidin-1-yl)but-2-enoyl)-4-(2-(((S)-1-methylpyrroli-din-2-yl)methoxy)-7-(naph-thalen-1-yl)-7,8-dihydro-5H-pyrano[4,3-d]pyrimidin-4-yl)piperazin-2-yl)acetonitrile] | 7.19 nM | 9580 nM | 333 nM
C#Cc1cccc2cc(O)cc([C@@H]3Cc4nc(OC[C@@H]5CCCN5C)nc(N5C[C@H](CC#N)N(C(=O)/C=C/CN6CCC(OC)CC6)C[C@H]5C)c4CO3)c12 [Example 14, 2-((2S,5R)-4-((S)-7-(8-ethynyl-3-hydroxynaph-thalen-1-yl)-2-(((S)-1-meth-ylpyrrolidin-2-yl)methoxy)-7,8-dihydro-5H-pyrano[4,3-d]pyrimidin-4-yl)-1-((E)-4-(4-methoxypiperidin-1-yl)-but-2-enoyl)-5-methylpiper-azin-2-yl)acetonitrile] | 0.82 nM | 531 nM | 7.88 nM
CO[C@H]1CC[C@H](NC/C=C/C(=O)N2CCN(c3nc(OC[C@@H]4CCCN4C)nc4c3CO[C@H](c3cc(O)cc5cccc(Br)c35)C4)C[C@@H]2CC#N)CC1 [Example 11, 2-((S)-4-((S)-7-(8-bromo-3-hydroxynaphthalen-1-yl)-2-(((S)-1-methylpyrrolidin-2-yl)methoxy)-7,8-dihydro-5H-pyrano[4,3-d]pyrimidin-4-yl)-1-((E)-4-(((1r,4S)-4-methoxycyclohexyl)amino)-but-2-enoyl)piperazin-2-yl)-acetonitrile] | 0.81 nM | 182 nM | 21.7 nM
C#Cc1cccc2cccc(C3Cc4nc(OCC5(CN6CCOCC6)CC5)nc(N5CCN(C(=O)/C=C/CN6CCC(OC)CC6)[C@@H](CC#N)C5)c4CO3)c12 (stereo partly drawn) [Example 6, 2-((2S)-4-(7-(8-ethynylnaph-thalen-1-yl)-2-((1-(morpho-linomethyl)cyclopropyl)-methoxy)-7,8-dihydro-5H-pyrano[4,3-d]pyrimidin-4-yl)-1-((E)-4-(4-methoxy-piperidin-1-yl)but-2-enoyl)-piperazin-2-yl)acetonitrile] | 15.4 nM | 1260 nM | 268 nM
COC1CCN(C/C=C/C(=O)N2CCN(c3nc(OC[C@@H]4CCCN4C)nc4c3COC(c3cccc5cccc(Br)c35)C4)C[C@@H]2CC#N)CC1 (stereo partly drawn) [Example 5, 2-((2S)-4-(7-(8-bromonaph-thalen-1-yl)-2-(((S)-1-meth-ylpyrrolidin-2-yl)methoxy)-7,8-dihydro-5H-pyrano[4,3-d]pyrimidin-4-yl)-1-((E)-4-(4-methoxypiperidin-1-yl)-but-2-enoyl)piperazin-2-yl)-acetonitrile] | 2.63 nM | 2820 nM | 177 nM
C#Cc1cccc2cc(O)cc([C@@H]3Cc4nc(OCC5(COC)CC5)nc(N5CCN(C(=O)/C=C/CN6CCC(OC)CC6)[C@@H](CC#N)C5)c4CO3)c12 [Example 17, 2-((S)-4-((S)-7-(8-ethynyl-3-hydroxynaphthalen-1-yl)-2-((1-(methoxymethyl)-cyclopropyl)methoxy)-7,8-dihydro-5H-pyrano[4,3-d]-pyrimidin-4-yl)-1-((E)-4-(4-methoxypiperidin-1-yl)but-2-enoyl)piperazin-2-yl)-acetonitrile] | 255 nM | > 6670 nM | 543 nM
COC1CCN(C/C=C/C(=O)N2CCN(c3nc(OCC4(CN5CCOCC5)CC4)nc4c3COC3(CCc5cccc(Br)c53)C4)C[C@@H]2CC#N)CC1 (stereo partly drawn) [Example 21, 2-((2S)-4-(7-bromo-2′-((1-(morpholinomethyl)cyclopropyl)methoxy)-2,3,5′,8′-tetrahydrospiro[indene-1,7′-pyrano[4,3-d]pyrimidin]-4′-yl)-1-((E)-4-(4-methoxypiperidin-1-yl)but-2-enoyl)piperazin-2-yl)acetonitrile] | 287 nM | > 6670 nM | 1130 nM
